pIC50, pKd: −log10 of the molar value. In brackets after ≈: the same amount, converted by molar mass. Activity calls are given as the source filed them. The rule behind the calls is not given here.
Assays:
[1] = molecular target: T1, Bromodomain-containing protein 4 (Homo sapiens, UniProt O60885); assay: Binding affinity to BRD4 in human HL60 cell nuclear extracts assessed as inhibition of protein binding to N-I-BET functionalised sepharose beads at 10 uM after 1 hr by coomassie staining-based staining-based chemoproteomic profiling; settings: HL-60
HL-60 = assay: cells; assay type: functional, cell-based; settings: Homo sapiens, HL-60, 72 h
Description: Growth inhibition of human HL60 cells assessed as ATP level after 72 hrs by CellTiterGlo assay

[2] = Solubility of the compound by chemiluminescent nitrogen detection method; assay type: physicochemical
PBMC [3] = assay: Antiinflammatory activity in human PBMC assessed as inhibition of LPS-stimulated IL-6 production incubated for 30 mins prior to LPS-challenge measured after overnight incubation; assay type: functional, cell-based
Histone deacetylase 1 [4] = molecular target: T2, Histone deacetylase 1 (Homo sapiens, UniProt Q13547)
T2 sequence (Q13547 whole entry): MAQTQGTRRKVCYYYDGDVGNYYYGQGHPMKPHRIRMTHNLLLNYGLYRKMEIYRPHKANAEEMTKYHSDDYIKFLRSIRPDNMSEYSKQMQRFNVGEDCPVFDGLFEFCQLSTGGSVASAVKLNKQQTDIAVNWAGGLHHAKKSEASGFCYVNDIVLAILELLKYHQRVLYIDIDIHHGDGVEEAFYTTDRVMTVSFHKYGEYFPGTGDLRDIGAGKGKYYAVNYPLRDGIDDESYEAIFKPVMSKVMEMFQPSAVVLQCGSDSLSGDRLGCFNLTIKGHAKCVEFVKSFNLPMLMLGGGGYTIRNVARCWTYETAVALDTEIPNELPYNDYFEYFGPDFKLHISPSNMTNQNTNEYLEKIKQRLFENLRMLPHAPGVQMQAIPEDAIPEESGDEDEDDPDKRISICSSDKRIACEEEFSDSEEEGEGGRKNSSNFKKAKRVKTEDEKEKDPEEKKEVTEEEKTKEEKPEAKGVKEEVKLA
Description: Inhibition of HDAC1 (unknown origin)

[5] = molecular target: T3, Bromodomain-containing protein 3 (Homo sapiens, UniProt Q15059); assay: Binding affinity to BRD3 in human HL60 cell nuclear extracts assessed as inhibition of protein binding to N-I-BET functionalised sepharose beads at 10 uM after 1 hr by coomassie staining-based staining-based chemoproteomic profiling; settings: HL-60
Target sequence in this assay (Q15059 2-726 limits assumed): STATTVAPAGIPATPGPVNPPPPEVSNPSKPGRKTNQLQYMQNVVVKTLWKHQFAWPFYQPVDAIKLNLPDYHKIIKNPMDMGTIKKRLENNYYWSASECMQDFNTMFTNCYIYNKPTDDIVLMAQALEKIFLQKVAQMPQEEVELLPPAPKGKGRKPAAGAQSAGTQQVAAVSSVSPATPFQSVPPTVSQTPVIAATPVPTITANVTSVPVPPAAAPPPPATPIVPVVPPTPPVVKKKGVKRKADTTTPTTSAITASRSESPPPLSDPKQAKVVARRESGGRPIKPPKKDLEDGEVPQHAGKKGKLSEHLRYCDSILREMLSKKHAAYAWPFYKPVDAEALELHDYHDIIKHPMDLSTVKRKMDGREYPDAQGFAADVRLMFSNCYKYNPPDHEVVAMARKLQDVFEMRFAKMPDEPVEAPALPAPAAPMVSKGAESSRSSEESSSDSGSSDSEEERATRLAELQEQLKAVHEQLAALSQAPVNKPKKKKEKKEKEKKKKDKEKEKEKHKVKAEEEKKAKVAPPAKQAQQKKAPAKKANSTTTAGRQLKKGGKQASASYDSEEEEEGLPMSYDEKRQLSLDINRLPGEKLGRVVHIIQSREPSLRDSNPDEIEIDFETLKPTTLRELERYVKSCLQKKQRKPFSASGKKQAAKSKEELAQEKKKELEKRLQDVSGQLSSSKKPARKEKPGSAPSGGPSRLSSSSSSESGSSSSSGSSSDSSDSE

PBMC [6] = assay: Antiinflammatory activity in human PBMC assessed as inhibition of LPS-stimulated TNF-alpha production incubated for 30 mins prior to LPS-challenge measured after overnight incubation; assay type: functional, cell-based
cells = assay type: functional; settings: Homo sapiens, 72 h
Description: Growth inhibition of human 11060 cells assessed as ATP level after 72 hrs by CellTiterGlo assay

[7] = molecular target: T4, Bromodomain-containing protein 2 (Homo sapiens, UniProt P25440); assay: Binding affinity to BRD2 in human HL60 cell nuclear extracts assessed as inhibition of protein binding to N-I-BET functionalised sepharose beads at 10 uM after 1 hr by coomassie staining-based chemoproteomic profiling; settings: HL-60
Target sequence in this assay (P25440 whole entry, looked up): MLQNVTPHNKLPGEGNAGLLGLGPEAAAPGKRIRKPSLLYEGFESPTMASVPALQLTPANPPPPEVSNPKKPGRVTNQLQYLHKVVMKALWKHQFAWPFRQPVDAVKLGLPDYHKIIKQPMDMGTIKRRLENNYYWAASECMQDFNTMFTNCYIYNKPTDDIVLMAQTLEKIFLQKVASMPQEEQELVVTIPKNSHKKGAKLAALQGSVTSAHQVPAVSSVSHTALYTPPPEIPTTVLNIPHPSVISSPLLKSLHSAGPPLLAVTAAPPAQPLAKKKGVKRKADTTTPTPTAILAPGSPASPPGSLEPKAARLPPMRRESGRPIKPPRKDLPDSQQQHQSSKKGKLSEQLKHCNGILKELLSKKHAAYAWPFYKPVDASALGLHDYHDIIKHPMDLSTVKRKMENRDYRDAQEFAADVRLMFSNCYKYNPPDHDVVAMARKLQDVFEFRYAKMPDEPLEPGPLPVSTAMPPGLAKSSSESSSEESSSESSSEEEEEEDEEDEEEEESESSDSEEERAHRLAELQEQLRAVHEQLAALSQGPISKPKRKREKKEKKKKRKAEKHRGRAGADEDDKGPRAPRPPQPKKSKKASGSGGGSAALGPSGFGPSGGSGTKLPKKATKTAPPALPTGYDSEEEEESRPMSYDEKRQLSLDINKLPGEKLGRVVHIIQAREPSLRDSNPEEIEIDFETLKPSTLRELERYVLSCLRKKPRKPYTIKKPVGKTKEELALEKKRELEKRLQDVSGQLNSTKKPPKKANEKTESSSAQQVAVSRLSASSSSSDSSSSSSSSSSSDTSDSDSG

MV4-11 = assay: cells; assay type: functional, cell-based; settings: Homo sapiens, MV4-11, 72 h
Description: Growth inhibition of human MV4-11 cells assessed as ATP level after 72 hrs by CellTiterGlo assay

[8] = Permeability of the compound in artificial membrane; assay type: physicochemical, cell membranes; settings: PAMPA; read-out: permeability
[9] = molecular target: T1, Bromodomain-containing protein 4; assay: Inhibition of recombinant BRD4 bromodomain 1 (unknown origin) using histone H4 peptide as substrate incubated for 1 hr under dark condition by HTRF assay
Histone deacetylase 9 = Histone deacetylase 9 (Homo sapiens, UniProt Q9UKV0)
Histone deacetylase 9, sequence (Q9UKV0 whole entry): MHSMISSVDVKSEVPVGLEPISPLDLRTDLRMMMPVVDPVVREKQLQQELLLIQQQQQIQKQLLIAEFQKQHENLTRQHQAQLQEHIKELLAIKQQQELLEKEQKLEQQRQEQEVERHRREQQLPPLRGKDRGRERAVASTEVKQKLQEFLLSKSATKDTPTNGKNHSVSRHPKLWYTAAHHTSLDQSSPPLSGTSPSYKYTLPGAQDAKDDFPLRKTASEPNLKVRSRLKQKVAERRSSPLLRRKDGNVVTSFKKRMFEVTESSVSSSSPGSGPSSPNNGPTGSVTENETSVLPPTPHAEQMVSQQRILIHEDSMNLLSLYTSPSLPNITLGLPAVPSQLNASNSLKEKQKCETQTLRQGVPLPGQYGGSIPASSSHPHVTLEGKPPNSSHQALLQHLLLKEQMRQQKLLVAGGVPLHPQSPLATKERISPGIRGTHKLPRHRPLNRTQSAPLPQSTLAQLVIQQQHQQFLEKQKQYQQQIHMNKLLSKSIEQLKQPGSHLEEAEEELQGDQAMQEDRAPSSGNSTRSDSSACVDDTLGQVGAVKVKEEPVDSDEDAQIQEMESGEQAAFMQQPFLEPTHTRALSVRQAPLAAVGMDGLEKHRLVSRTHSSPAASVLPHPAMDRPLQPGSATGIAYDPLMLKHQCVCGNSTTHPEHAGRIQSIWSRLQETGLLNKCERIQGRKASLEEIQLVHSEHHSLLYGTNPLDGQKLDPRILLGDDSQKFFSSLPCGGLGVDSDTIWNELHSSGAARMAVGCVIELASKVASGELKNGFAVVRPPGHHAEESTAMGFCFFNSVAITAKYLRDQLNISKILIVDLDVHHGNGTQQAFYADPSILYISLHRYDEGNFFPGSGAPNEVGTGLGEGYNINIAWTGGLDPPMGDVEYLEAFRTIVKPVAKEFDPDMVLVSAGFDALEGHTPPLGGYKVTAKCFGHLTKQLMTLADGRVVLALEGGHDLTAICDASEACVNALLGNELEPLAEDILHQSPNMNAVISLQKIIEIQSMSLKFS
Description: Inhibition of HDAC9 (unknown origin)

[10] = molecular target: T5, Protein deacetylase HDAC6 (Homo sapiens, UniProt Q9UBN7)
T5 sequence (Q9UBN7 whole entry): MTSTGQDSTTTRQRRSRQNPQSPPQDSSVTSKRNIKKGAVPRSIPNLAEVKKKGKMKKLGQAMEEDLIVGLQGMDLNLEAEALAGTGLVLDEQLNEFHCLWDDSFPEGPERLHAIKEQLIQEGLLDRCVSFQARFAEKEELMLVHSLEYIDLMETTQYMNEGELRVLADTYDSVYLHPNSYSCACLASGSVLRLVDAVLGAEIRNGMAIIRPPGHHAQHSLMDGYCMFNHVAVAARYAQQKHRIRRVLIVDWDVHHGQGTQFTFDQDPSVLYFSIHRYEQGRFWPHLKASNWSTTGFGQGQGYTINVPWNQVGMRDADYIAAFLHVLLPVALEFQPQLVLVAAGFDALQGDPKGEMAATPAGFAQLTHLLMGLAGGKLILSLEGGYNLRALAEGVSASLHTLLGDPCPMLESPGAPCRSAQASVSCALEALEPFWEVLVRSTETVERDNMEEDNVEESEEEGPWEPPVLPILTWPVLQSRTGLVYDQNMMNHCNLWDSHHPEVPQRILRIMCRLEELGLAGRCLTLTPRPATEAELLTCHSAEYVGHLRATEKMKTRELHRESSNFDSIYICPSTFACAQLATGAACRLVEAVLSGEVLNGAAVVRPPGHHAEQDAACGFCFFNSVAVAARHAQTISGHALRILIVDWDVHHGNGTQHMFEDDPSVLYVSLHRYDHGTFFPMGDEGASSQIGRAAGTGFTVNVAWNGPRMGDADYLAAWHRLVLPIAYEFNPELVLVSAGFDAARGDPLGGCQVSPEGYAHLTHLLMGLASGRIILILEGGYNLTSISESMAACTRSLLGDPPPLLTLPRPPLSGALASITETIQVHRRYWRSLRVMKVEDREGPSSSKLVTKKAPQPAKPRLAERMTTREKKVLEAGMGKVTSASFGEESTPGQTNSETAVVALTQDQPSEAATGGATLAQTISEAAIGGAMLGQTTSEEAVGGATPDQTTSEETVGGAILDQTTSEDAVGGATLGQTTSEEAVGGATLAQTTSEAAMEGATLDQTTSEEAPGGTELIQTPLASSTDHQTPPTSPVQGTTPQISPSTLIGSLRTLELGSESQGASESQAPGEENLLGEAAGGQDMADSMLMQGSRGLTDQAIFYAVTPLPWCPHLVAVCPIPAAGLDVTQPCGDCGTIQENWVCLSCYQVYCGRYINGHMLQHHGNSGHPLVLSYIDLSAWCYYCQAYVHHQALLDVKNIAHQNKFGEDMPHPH
Description: Inhibition of HDAC6 (unknown origin)

Homo sapiens = species on record: Homo sapiens; assay: Inhibition of BET in human 11060 cells assessed as downregulation of c-Myc expression level at IC90 after 6 to 24 hrs by Western blotting analysis; assay type: cell-based
[11] = molecular target: T6, Polyamine deacetylase HDAC10 (Homo sapiens, UniProt Q969S8)
T6 sequence (Q969S8 whole entry): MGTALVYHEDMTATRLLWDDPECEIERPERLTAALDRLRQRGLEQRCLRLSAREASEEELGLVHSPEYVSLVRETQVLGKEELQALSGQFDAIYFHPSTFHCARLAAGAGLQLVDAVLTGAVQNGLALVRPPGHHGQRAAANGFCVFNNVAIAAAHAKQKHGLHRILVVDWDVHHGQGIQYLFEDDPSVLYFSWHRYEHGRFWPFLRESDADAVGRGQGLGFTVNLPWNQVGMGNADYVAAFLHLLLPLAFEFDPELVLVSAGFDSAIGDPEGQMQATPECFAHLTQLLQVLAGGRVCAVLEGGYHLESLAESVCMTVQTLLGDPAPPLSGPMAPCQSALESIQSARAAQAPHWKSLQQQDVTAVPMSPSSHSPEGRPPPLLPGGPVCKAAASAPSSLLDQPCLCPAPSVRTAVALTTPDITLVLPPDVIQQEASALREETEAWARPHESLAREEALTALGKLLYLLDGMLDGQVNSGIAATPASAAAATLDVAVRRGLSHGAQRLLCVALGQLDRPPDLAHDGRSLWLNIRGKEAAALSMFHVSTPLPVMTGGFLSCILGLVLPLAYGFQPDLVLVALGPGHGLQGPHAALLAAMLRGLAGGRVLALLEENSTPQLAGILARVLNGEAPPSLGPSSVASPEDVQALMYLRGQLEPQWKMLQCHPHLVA
Description: Binding affinity to HDAC10 in human HL60 cell nuclear extracts assessed as inhibition of enzyme binding to N-SAHA functionalised sepharose beads after 1 hr by coomassie staining-based chemoproteomic competition binding assay

[12] = molecular target: T1, Bromodomain-containing protein 4; assay: Inhibition of His6-tagged BRD4 (1 to 477) (unknown origin) by surface plasmon resonance analysis
[13] = molecular target: T4, Bromodomain-containing protein 2; assay: Binding affinity to BRD2 in human HL60 cell nuclear extracts assessed as inhibition of protein binding to N-I-BET functionalised sepharose beads after 1 hr by coomassie staining-based chemoproteomic competition binding assay; design: species or system HL-60; settings: read-out: Kd(app)
Histone deacetylase 2 = Histone deacetylase 2 (Homo sapiens, UniProt Q92769)
Histone deacetylase 2, sequence (Q92769 whole entry): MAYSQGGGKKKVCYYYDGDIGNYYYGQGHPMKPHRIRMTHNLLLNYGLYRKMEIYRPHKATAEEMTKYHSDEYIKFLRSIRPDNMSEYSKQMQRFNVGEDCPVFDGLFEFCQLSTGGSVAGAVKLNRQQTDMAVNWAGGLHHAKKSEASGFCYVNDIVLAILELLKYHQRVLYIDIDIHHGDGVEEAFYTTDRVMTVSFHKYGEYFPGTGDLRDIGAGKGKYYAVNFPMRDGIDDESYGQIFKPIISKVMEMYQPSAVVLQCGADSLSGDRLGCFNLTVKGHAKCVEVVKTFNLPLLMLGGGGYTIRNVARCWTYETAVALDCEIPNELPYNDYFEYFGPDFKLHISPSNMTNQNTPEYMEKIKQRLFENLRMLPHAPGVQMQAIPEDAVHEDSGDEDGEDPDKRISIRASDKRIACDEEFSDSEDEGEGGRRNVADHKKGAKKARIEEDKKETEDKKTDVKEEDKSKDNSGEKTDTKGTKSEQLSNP
Description: Binding affinity to HDAC2 in human HL60 cell nuclear extracts assessed as inhibition of enzyme binding to N-SAHA functionalised sepharose beads after 1 hr by coomassie staining-based chemoproteomic competition binding assay

[14] = molecular target: T3, Bromodomain-containing protein 3; assay: Binding affinity to BRD3 in human HL60 cell nuclear extracts assessed as inhibition of protein binding to N-I-BET functionalised sepharose beads after 1 hr by coomassie staining-based chemoproteomic competition binding assay; design: species or system HL-60; settings: read-out: Kd(app)
Target sequence in this assay (Q15059 whole entry): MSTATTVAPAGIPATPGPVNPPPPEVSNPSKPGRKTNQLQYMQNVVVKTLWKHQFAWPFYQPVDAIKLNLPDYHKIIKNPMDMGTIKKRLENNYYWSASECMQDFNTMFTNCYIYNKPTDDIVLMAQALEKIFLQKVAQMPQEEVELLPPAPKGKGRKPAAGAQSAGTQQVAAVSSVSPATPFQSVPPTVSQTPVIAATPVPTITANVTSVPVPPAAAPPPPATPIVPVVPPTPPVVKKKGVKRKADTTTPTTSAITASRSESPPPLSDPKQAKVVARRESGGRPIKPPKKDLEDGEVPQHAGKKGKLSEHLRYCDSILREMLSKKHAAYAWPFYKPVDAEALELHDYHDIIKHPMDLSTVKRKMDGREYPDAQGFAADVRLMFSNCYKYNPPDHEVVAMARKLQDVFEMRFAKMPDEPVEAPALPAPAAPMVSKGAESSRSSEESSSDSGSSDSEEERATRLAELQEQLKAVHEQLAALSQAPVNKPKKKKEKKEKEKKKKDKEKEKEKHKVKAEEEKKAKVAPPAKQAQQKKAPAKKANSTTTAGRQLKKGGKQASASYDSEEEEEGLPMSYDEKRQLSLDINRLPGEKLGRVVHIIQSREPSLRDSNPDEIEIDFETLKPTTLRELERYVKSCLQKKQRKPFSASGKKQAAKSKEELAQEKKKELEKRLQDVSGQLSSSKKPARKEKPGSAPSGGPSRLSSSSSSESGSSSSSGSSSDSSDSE

Histone deacetylase 3 = Histone deacetylase 3 (Homo sapiens, UniProt O15379)
Histone deacetylase 3, sequence (O15379 whole entry): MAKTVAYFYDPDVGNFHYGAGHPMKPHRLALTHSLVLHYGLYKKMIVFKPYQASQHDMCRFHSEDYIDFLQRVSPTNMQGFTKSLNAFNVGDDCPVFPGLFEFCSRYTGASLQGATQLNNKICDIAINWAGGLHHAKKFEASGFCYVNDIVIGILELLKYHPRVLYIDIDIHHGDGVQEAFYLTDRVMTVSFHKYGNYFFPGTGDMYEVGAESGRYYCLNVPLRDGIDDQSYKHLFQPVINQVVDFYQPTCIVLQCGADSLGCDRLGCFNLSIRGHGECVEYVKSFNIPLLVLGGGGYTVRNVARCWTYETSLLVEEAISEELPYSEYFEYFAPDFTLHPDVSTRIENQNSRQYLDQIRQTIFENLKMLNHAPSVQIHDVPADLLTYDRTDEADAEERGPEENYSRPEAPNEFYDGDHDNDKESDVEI
Description: Binding affinity to HDAC3 in human HL60 cell nuclear extracts assessed as inhibition of enzyme binding to N-SAHA functionalised sepharose beads after 1 hr by coomassie staining-based chemoproteomic competition binding assay

Histone deacetylase 8 = molecular target: T7, Histone deacetylase 8 (Homo sapiens, UniProt Q9BY41)
T7 sequence (Q9BY41 whole entry): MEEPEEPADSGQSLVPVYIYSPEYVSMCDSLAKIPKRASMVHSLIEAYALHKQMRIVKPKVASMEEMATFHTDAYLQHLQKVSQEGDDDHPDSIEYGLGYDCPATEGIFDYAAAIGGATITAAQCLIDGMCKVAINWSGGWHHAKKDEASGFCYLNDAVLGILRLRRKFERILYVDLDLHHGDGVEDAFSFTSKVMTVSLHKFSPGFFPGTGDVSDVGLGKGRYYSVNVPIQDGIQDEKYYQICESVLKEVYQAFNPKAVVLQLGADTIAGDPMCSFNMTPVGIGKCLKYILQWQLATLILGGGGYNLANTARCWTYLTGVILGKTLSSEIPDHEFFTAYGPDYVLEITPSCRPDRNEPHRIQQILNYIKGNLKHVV
Description: Binding affinity to HDAC8 in human HL60 cell nuclear extracts assessed as inhibition of enzyme binding to N-SAHA functionalised sepharose beads after 1 hr by coomassie staining-based chemoproteomic competition binding assay

[15] = molecular target: T1, Bromodomain-containing protein 4; assay: Inhibition of BRD4 bromodomain 2 (338 to 437) (unknown origin) by surface plasmon resonance analysis
Histone deacetylase 1 [16] = molecular target: T2, Histone deacetylase 1; remark: listed apart in the source
Description: Binding affinity to HDAC1 in human HL60 cell nuclear extracts assessed as inhibition of enzyme binding to N-SAHA functionalised sepharose beads after 1 hr by coomassie staining-based chemoproteomic competition binding assay

[17] = molecular target: T1, Bromodomain-containing protein 4; assay: Binding affinity to BRD4 in human HL60 cell nuclear extracts assessed as inhibition of protein binding to N-I-BET functionalised sepharose beads after 1 hr by coomassie staining-based staining-based chemoproteomic competition assay; design: species or system HL-60; settings: read-out: Kd(app)
[18] = molecular target: T5, Protein deacetylase HDAC6; remark: listed apart in the source
Description: Binding affinity to HDAC6 in human HL60 cell nuclear extracts assessed as inhibition of enzyme binding to N-SAHA functionalised sepharose beads after 1 hr by coomassie staining-based chemoproteomic competition binding assay

Structure (SMILES) | inhibition [1] | solubility ([2]; read-out: solubility) [µM] | pIC50 (Histone deacetylase 1 [4]) | inhibition [5] | inhibition [7] | Papp [8] [×10⁻⁶ cm/s] | pIC50 [9] | pIC50 (Histone deacetylase 9) | pIC50 [10] | also measured
CNCc1ccc(-c2ccc3c(c2)[C@H](NC(=O)OC(C)C)C[C@H](C)N3C(C)=O)cc1 | Active | 357 (≈ 146 µg/mL) | < 4.00 | Active | Active | 17.4 | 6.55 | < 4.00 | – | pIC50 (HL-60): 6.42; pIC50 (PBMC [3]): 8.30; pIC50 (PBMC [6]): 9.00; pIC50 (cells): 6.51; pIC50 (MV4-11): 6.72
CC(=O)N1c2ccc(-c3ccccc3)cc2[C@H](NC(=O)CCCCCCC(=O)NO)C[C@@H]1C | Active | > 442 | 7.30 | Active | Active | 0.8 | 6.44 | 6.03 | 5.89 | –
O=C(CCCCCCC(=O)Nc1ccccc1)NO [VORINOSTAT] | – | – | – | – | – | 1.5 | < 4.30 | – | – | solubility [2]: 307 µM (≈ 81.1 µg/mL)
CC(=O)N1c2ccc(-c3ccc(NC(=O)CCCCCCC(=O)NO)cc3)cc2[C@H](NC(=O)OC(C)C)C[C@@H]1C | Active | 154 (≈ 85.1 µg/mL) | 6.60 | Active | Active | < 0.3 | 7.30 | 4.46 | 6.38 | pIC50 (HL-60): 6.12; pIC50 (PBMC [3]): 6.66; inhibition (Homo sapiens): Active; pKd [11]: 6.68; pKd [12]: 7.24; pKd [13]: 7.49; pKd (Histone deacetylase 2): 6.02; pKd [14]: 7.15; pIC50 (PBMC [6]): 7.30; pIC50 (cells): 6.08; pKd (Histone deacetylase 3): 6.37; pIC50 (MV4-11): 6.48; pKd (Histone deacetylase 8): 6.48; pKd [15]: 7.28; pKd (Histone deacetylase 1 [16]): 6.48; pKd [17]: 6.95; pKd [18]: 6.63
CC(=O)N1c2ccc(NC(=O)CCCCCCC(=O)NO)cc2[C@H](Nc2ccccc2)C[C@@H]1C | – | 31 (≈ 14.5 µg/mL) | 6.05 | – | – | 3.1 | 7.00 | 4.42 | 6.01 | –
CC(=O)N1c2ccc(NC(=O)CCCCCCC(=O)O)cc2[C@H](NC(=O)OC(C)C)C[C@@H]1C | Active | – | – | Active | Active | – | – | – | – | –
CC(=O)N1c2ccc(NC(=O)CCCCCCC(=O)NO)cc2[C@H](NC(=O)OC(C)C)C[C@@H]1C | – | > 182 | 6.60 | – | – | < 0.3 | 6.54 | 4.21 | 5.76 | –
